Key:
[1] = tested on: human liver cancer cell line SMMC-7721 cells; assay: In vivo efficacy test in mice transplanted with SMMC-7721 cells; details: for Cancer weight: babl/c-nu mice with SMMC-7721 cells; for Percentage (%) of inhibition of cancer growth: from cancer weight vs cancer model group
Procedure: (§1) Human liver cancer cell line SMMC-7721 cells (purchased from the Shanghai Cell Bank of Chinese Academy of Sciences) were incubated in RPMI-1640 medium supplemented with 10% FBS, 50 U/ml penicillin, and 50 μg/ml streptomycin in an incubator under conditions of 37° C., 5% CO2, and 95% air. The medium was exchanged every three days.
(§2) The mice were allowed free access to food and water, and were bred in a 12-hr light/12-hr dark cycle.
The twenty five mice were subcutaneously inoculated into the neck site with SMMC-7721 cells at 2×10^7 cells per mouse, and bred for 7 days. […] 5-Fluorouracil (5-FU), which is used as an anticancer drug, was treated for a positive control group.
Cancer tissues were isolated from the mice after seven days of administration of the drug for each group, and visually observed. Cancer weights were measured. In addition, the inhibition of cancer growth was calculated on the basis of the measured weights of the cancer tissues by using the following equation. Percentage of inhibition of cancer growth=(1−(sample treatment group/cancer model group))×100

[2] = tested on: human liver cancer cell line H22 cells; assay: In vivo efficacy test in mice transplanted with H22 cells; details: from cancer volume vs cancer model group
Procedure: as §1, with “H22” for “SMMC-7721”, “100” for “50”
as §2
(§3) Out of the 50 mice, 10 mice were classified as the normal group, and the remaining 40 animals were subcutaneously inoculated with H22 cells at 1×10^7 cells per mouse, and bred for 7 days. […] 5-Fluorouracil (5-FU), which is used as an anticancer drug, was treated for a positive control group.
(§4) After the administration of the drug for each group, cancer sizes were measured daily using a Vernier caliper, and cancer volumes were calculated using the equation V=0.5×ab^2 (a is the longest diameter of cancer and b is the shortest diameter of cancer). In addition, the inhibition of cancer volume according to the number of days of administration was calculated by the following equation. Percentage of inhibition of cancer growth=(1−(sample treatment group/cancer model group))×100

[3] = as above; details: ICR mice with H22 cells
Procedure: as §1, with “H22” for “SMMC-7721”, “100” for “50”
as §2, §3, §4

[4] = tested on: human liver cancer cells HCCLM3; assay: MTT cell proliferation assay, HCCLM3 cells; type: cell-based
Procedure: (§5) Fetal bovine serum (FBS) and cell culture medium were prepared (Hyclone), and dimethyl sulfoxide (DMSO) and 3-(4,5-dimethyl-thiazol-2yl)-2,5-diphenyltetrazolium bromide (MTT, Amresco LLC, USC) were prepared.
(§6) As human cancer cell lines, human liver cancer cells SMMC-7721 and HCCLM3 were obtained from the Shanghai Cell Bank of Chinese Academy of Sciences. The SMMC-7721 cells were incubated in RPMI-1640 medium supplemented with 10% FBS, 50 U/ml penicillin, and 50 μg/ml streptomycin and the HCCLM3 cells were incubated in Dulbecco's modified Eagle's medium (DMEM) supplemented with 10% FBS, 100 U/ml penicillin, and 100 μg/ml streptomycin in a humidified incubator with 5% CO2 and 95% air. […]
(§7) The effects of Example 1 and Comparative Examples 1 to 3 on cell proliferation were assessed using MTT assay. […] All the crystals were completely dissolved by standing at room temperature for 15 minutes, and the absorbance was measured using a micro-plate reader at a wavelength of 570 nm (A570nm).
(§8) The absorbance value of the control group treated without the sample was calculated as 100, and the absorbance value of the treatment group treated with the sample, compared with that of the control group, was calibrated, and the percentage of inhibition of cell proliferation was calculated according to the following equation. […]
(§9) All data were expressed as mean±standard error of the mean (mean±SEM). […]

[5] = tested on: human liver cancer cells SMMC-7721; assay: MTT cell proliferation assay, SMMC-7721 cells; type: cell-based
Procedure: as §5, §6, §7, §8, §9

[6] = Positive control group, 20 mg/kg oral daily for 7 days
[7] = Positive control group, 20 mg/kg oral daily, 5 days
[8] = Positive control group, 20 mg/kg oral daily, 7 days
[9] = Positive control group, 20 mg/kg oral daily, 9 days
[10] = Positive control group, 20 mg/kg oral daily, 11 days
[11] = Test Group 1, 4.5 mg/kg oral daily for 7 days
[12] = Test Group 2, 2.25 mg/kg oral daily for 7 days
[13] = Test Group 3, 1.125 mg/kg oral daily for 7 days
[14] = Test Group 1, 4.5 mg/kg oral daily, 5 days
[15] = Test Group 1, 4.5 mg/kg oral daily, 7 days
[16] = Test Group 1, 4.5 mg/kg oral daily, 9 days
[17] = Test Group 1, 4.5 mg/kg oral daily, 11 days
[18] = Test Group 2, 2.25 mg/kg oral daily, 5 days
[19] = Test Group 2, 2.25 mg/kg oral daily, 7 days
[20] = Test Group 2, 2.25 mg/kg oral daily, 9 days
[21] = Test Group 2, 2.25 mg/kg oral daily, 11 days

Molecule: O=c1[nH]cc(F)c(=O)[nH]1 [5-Fluorouracil, reference compound]
- Cancer weight [1, 6]: 0.72 ± 0.27 g
- Percentage (%) of inhibition of cancer growth [1, 6]: 32.5%
- Percentage (%) of inhibition of cancer growth [2, 7]: 26.16%
- Percentage (%) of inhibition of cancer growth [2, 8]: 46.73%
- Percentage (%) of inhibition of cancer growth [2, 9]: 52.15%
- Percentage (%) of inhibition of cancer growth [2, 10]: 63.48%
- Cancer volume according to number of days of administration [3, 7]: 165.62 mm^3
- Cancer volume according to number of days of administration [3, 8]: 212.78 mm^3
- Cancer volume according to number of days of administration [3, 9]: 318.07 mm^3
- Cancer volume according to number of days of administration [3, 10]: 661.97 mm^3

Molecule: tetraarsenic hexoxide [Example 1]
- Cancer weight [1, 11]: 0.65 ± 0.17 g
- Percentage (%) of inhibition of cancer growth [1, 11]: 39.7%
- Cancer weight [1, 12]: 0.70 ± 0.10 g
- Percentage (%) of inhibition of cancer growth [1, 12]: 34.3%
- Cancer weight [1, 13]: 0.77 ± 0.12 g
- Percentage (%) of inhibition of cancer growth [1, 13]: 28.0%
- Tumor tissue sizes (visual observation) ([1]; isolated cancer tissues after 7 days of oral administration, FIG. 6): reduced
- Percentage of inhibition of HCCLM3 cell proliferation compared with Comparative Example 1 ([4]; incubation for 48 hours and 72 hours, 0.625-80 μM, FIGS. 3A-B): higher
- Percentage of inhibition of HCCLM3 cell proliferation compared with Comparative Example 2 or 3 ([4]; mixtures of Example 1 and Comparative Example 1 at 4:1 or 1:1, FIGS. 3A-B): higher
- Percentage (%) of inhibition of cancer growth [2, 14]: 25.06%
- Percentage (%) of inhibition of cancer growth [2, 15]: 40.36%
- Percentage (%) of inhibition of cancer growth [2, 16]: 41.50%
- Percentage (%) of inhibition of cancer growth [2, 17]: 51.42%
- Percentage (%) of inhibition of cancer growth [2, 18]: 3.36%
- Percentage (%) of inhibition of cancer growth [2, 19]: 24.23%
- Percentage (%) of inhibition of cancer growth [2, 20]: 41.54%
- Percentage (%) of inhibition of cancer growth [2, 21]: 45.52%
- Cancer volume according to number of days of administration [3, 14]: 168.09 mm^3
- Cancer volume according to number of days of administration [3, 15]: 238.22 mm^3
- Cancer volume according to number of days of administration [3, 16]: 388.85 mm^3
- Cancer volume according to number of days of administration [3, 17]: 880.55 mm^3
- Cancer volume according to number of days of administration [3, 18]: 216.75 mm^3
- Cancer volume according to number of days of administration [3, 19]: 302.66 mm^3
- Cancer volume according to number of days of administration [3, 20]: 388.56 mm^3
- Cancer volume according to number of days of administration [3, 21]: 987.61 mm^3
- Percentage of inhibition of SMMC-7721 cell proliferation compared with Comparative Example 1 ([5]; incubation for 48 hours and 72 hours, 0.625-80 μM, FIGS. 2A-B): higher
- Percentage of inhibition of SMMC-7721 cell proliferation compared with Comparative Example 2 or 3 ([5]; mixtures of Example 1 and Comparative Example 1 at 4:1 or 1:1, FIGS. 2A-B): higher

Reference: patent publication US11154530B2, “Pharmaceutical composition for treating liver cancer, comprising tetraarsenic hexoxide crystalline polymorph” (CHEMAS CO., LTD., priority 2016, dated 2021)
